Like-named read-outs stand apart in the source and are kept apart here.
What was measured:
[1] = Solubility in water (description); type: physicochemical; settings: ABOA, white to off-white solid
[2] = product insert (Zytiga Full Prescribing Information, Section 11); cited from earlier work
[3] = cited from earlier work
[4] = target: CYP3A4 liver enzyme (Homo sapiens, UniProt P08684); settings: Zytiga Full Prescribing Information, Section 7.2; cited from earlier work
Chain of CYP3A4 liver enzyme (P08684 whole entry): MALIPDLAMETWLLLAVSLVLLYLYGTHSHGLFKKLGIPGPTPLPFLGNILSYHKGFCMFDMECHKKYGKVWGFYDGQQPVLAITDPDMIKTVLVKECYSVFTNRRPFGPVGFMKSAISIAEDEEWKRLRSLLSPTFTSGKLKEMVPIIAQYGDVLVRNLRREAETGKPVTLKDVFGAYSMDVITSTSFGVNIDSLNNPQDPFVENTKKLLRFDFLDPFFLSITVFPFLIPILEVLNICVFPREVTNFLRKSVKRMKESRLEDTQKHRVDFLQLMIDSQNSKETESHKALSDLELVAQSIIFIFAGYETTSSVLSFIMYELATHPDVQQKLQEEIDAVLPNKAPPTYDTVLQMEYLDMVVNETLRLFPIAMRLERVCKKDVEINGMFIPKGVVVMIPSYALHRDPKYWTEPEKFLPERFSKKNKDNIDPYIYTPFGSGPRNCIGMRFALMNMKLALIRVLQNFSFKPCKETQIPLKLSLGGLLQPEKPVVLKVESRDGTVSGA

| Structure (SMILES) | solubility in water [1] | solubility in water [2] | food-effect ([3]; depending on fat content of the meal) | administered drug excreted ([3]; oral, low bioavailability from poor absorption) [%] | CYP3A4 substrate [4] |
| --- | --- | --- | --- | --- | --- |
| C[C@]12CC[C@H](OC(=O)C(=O)O)CC1=CC[C@@H]1[C@@H]2CC[C@]2(C)C(c3cccnc3)=CC[C@@H]12 [ABOA, 2-(((3S,8R,9S,10R,13S,14S)-10,13-dimethyl-17-(pyridin-3-yl)-2,3,4,7,8,9,10,11,12,13,14,15-dodecahydro-1H-cyclopenta[a]phenanthren-3-yl)oxy)-2-oxoacetic acid] | practically insoluble in water |  |  |  |  |
| CC(=O)O[C@H]1CC[C@@]2(C)C(=CC[C@@H]3[C@@H]2CC[C@]2(C)C(c4cccnc4)=CC[C@@H]32)C1 [abiraterone acetate] |  | practically insoluble in water | five- to ten-fold | 77 | substrate of the CYP3A4 liver enzyme |

From patent US10717762B2, “Abiraterone derivative and formulations thereof” (Zhuhai Beihai Biotech Co., Ltd., priority 2016, dated 2020)
